Assays:
Format in all cases: in vivo
[1] = tested on: ABUTH, Velvetleaf, Abutilon theophrasti, Medic.; test: Postemergence herbicidal evaluation (Example 147); conditions: rating scale 0-9, two to three weeks after treatment
In short: (§1)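 Plants at about two weeks from sowing received a foliar spray of test compound equivalent to roughly 0.016 to 0.032 kg per hectare. The carrier was 80/20 acetone/water containing 1.0% methylated seed oil. Injury was scored on a 0-9 visual scale two to three weeks later.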

[2] = tested on: ALOMY, Blackgrass, Alopecurus myosuroides; test: Postemergence herbicidal evaluation (Example 147); conditions: rating scale 0-9, two to three weeks after treatment
In short: as §1

[3] = tested on: AMBEL, Ragweed, Common, Ambrosia artemiisifolia, L.; test: Postemergence herbicidal evaluation (Example 147); conditions: rating scale 0-9, two to three weeks after treatment
In short: as §1

[4] = tested on: CHEAL, Lambsquarters, Chenopodium album, L. Common; test: Postemergence herbicidal evaluation (Example 147); conditions: rating scale 0-9, two to three weeks after treatment
In short: as §1

[5] = tested on: DIGSA, Crabgrass, (Hairy) L, Digitaria sanguinalis, (L)Scop; test: Postemergence herbicidal evaluation (Example 147); conditions: rating scale 0-9, two to three weeks after treatment
In short: as §1

[6] = tested on: ECHCG, Barnyardgrass, Echinochloa crusgalli, (L.)Beau; test: Postemergence herbicidal evaluation (Example 147); conditions: rating scale 0-9, two to three weeks after treatment
In short: as §1

[7] = tested on: GLXMA, Soybean, Glycine max, (L.) Merr.; test: Postemergence herbicidal evaluation (Example 147); conditions: rating scale 0-9, two to three weeks after treatment
In short: as §1

[8] = tested on: IPOHE, Morningglory, Ivyleaf, Ipomoea hederacea, (L)Jacq.; test: Postemergence herbicidal evaluation (Example 147); conditions: rating scale 0-9, two to three weeks after treatment
In short: as §1

[9] = tested on: SETVI, Green foxtail, Setaria viridis, (L.)Beau; test: Postemergence herbicidal evaluation (Example 147); conditions: rating scale 0-9, two to three weeks after treatment
In short: as §1

[10] = tested on: TRZAW, Winter wheat, Tritium Aestivum, L. (Winter); test: Postemergence herbicidal evaluation (Example 147); conditions: rating scale 0-9, two to three weeks after treatment
In short: as §1

[11] = tested on: XANST, Cocklebur, Xanthium strumariam; test: Postemergence herbicidal evaluation (Example 147); conditions: rating scale 0-9, two to three weeks after treatment
In short: as §1

[12] = tested on: ZEAMX, Field corn, Zea mays L.; test: Postemergence herbicidal evaluation (Example 147); conditions: rating scale 0-9, two to three weeks after treatment
In short: as §1

[13] = tested on: ABUTH, Velvetleaf, Abutilon theophrasti, Medic.; test: Preemergence herbicidal evaluation (Example 148); conditions: rating scale 0-9, two to four weeks after treatment
In short: (§2)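 Preemergence greenhouse test: seeds in potting soil, cups sprayed immediately after planting at ~0.125–0.250 kg/ha; plant appearance scored visually versus control 2–4 weeks on.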

[14] = tested on: ALOMY, Blackgrass, Alopecurus myosuroides; test: Preemergence herbicidal evaluation (Example 148); conditions: rating scale 0-9, two to four weeks after treatment
In short: as §2

[15] = tested on: AMBEL, Ragweed, Common, Ambrosia artemiisifolia, L.; test: Preemergence herbicidal evaluation (Example 148); conditions: rating scale 0-9, two to four weeks after treatment
In short: as §2

[16] = tested on: CHEAL, Lambsquarters, Chenopodium album, L. Common; test: Preemergence herbicidal evaluation (Example 148); conditions: rating scale 0-9, two to four weeks after treatment
In short: as §2

[17] = tested on: DIGSA, Crabgrass, (Hairy) L, Digitaria sanguinalis, (L)Scop; test: Preemergence herbicidal evaluation (Example 148); conditions: rating scale 0-9, two to four weeks after treatment
In short: as §2

[18] = tested on: ECHCG, Barnyardgrass, Echinochloa crusgalli, (L.)Beau; test: Preemergence herbicidal evaluation (Example 148); conditions: rating scale 0-9, two to four weeks after treatment
In short: as §2

[19] = tested on: GLXMA, Soybean, Glycine max, (L.) Merr.; test: Preemergence herbicidal evaluation (Example 148); conditions: rating scale 0-9, two to four weeks after treatment
In short: as §2

[20] = tested on: IPOHE, Morningglory, Ivyleaf, Ipomoea hederacea, (L)Jacq.; test: Preemergence herbicidal evaluation (Example 148); conditions: rating scale 0-9, two to four weeks after treatment
In short: as §2

[21] = tested on: SETVI, Green foxtail, Setaria viridis, (L.)Beau; test: Preemergence herbicidal evaluation (Example 148); conditions: rating scale 0-9, two to four weeks after treatment
In short: as §2

[22] = tested on: TRZAW, Winter wheat, Tritium Aestivum, L. (Winter); test: Preemergence herbicidal evaluation (Example 148); conditions: rating scale 0-9, two to four weeks after treatment
In short: as §2

[23] = tested on: XANST, Cocklebur, Xanthium strumariam; test: Preemergence herbicidal evaluation (Example 148); conditions: rating scale 0-9, two to four weeks after treatment
In short: as §2

[24] = tested on: ZEAMX, Field corn, Zea mays L.; test: Preemergence herbicidal evaluation (Example 148); conditions: rating scale 0-9, two to four weeks after treatment
In short: as §2

Substance: 3-(5-(N,N-Dimethyl)sulfamoylcarboxamido-4-chloro-2-fluorophenyl)-1,2,3,4-dihydro-6-trifluoromethylpyrimidin-2,4-dione [Example 54]
- Postemergence herbicidal rating ABUTH ([1]; rate 0.016 kg/ha): 9.0
- Postemergence herbicidal rating ABUTH ([1]; rate 0.032 kg/ha): 9.0
- Postemergence herbicidal rating ALMOY ([2]; rate 0.016 kg/ha): 2.0
- Postemergence herbicidal rating ALMOY ([2]; rate 0.032 kg/ha): 2.0
- Postemergence herbicidal rating AMBEL ([3]; rate 0.016 kg/ha): 9.0
- Postemergence herbicidal rating AMBEL ([3]; rate 0.032 kg/ha): 9.0
- Postemergence herbicidal rating CHEAL ([4]; rate 0.016 kg/ha): 9.0
- Postemergence herbicidal rating CHEAL ([4]; rate 0.032 kg/ha): 9.0
- Postemergence herbicidal rating DIGSA ([5]; rate 0.016 kg/ha): 5.0
- Postemergence herbicidal rating DIGSA ([5]; rate 0.032 kg/ha): 6.0
- Postemergence herbicidal rating ECHCG ([6]; rate 0.016 kg/ha): 6.0
- Postemergence herbicidal rating ECHCG ([6]; rate 0.032 kg/ha): 8.0
- Postemergence herbicidal rating GLXMA ([7]; rate 0.016 kg/ha): 8.0
- Postemergence herbicidal rating GLXMA ([7]; rate 0.032 kg/ha): 8.5
- Postemergence herbicidal rating IPOHE ([8]; rate 0.016 kg/ha): 9.0
- Postemergence herbicidal rating IPOHE ([8]; rate 0.032 kg/ha): 9.0
- Postemergence herbicidal rating SETVI ([9]; rate 0.016 kg/ha): 7.0
- Postemergence herbicidal rating SETVI ([9]; rate 0.032 kg/ha): 7.0
- Postemergence herbicidal rating TRZAW ([10]; rate 0.016 kg/ha): 5.5
- Postemergence herbicidal rating TRZAW ([10]; rate 0.032 kg/ha): 6.0
- Postemergence herbicidal rating XANST ([11]; rate 0.016 kg/ha): 9.0
- Postemergence herbicidal rating XANST ([11]; rate 0.032 kg/ha): 9.0
- Postemergence herbicidal rating ZEAMX ([12]; rate 0.016 kg/ha): 6.5
- Postemergence herbicidal rating ZEAMX ([12]; rate 0.032 kg/ha): 7.5
- Preemergence herbicidal rating ABUTH ([13]; rate 0.125 kg/ha): 9.0
- Preemergence herbicidal rating ABUTH ([13]; rate 0.25 kg/ha): 9.0
- Preemergence herbicidal rating ALMOY ([14]; rate 0.125 kg/ha): 0.0
- Preemergence herbicidal rating ALMOY ([14]; rate 0.25 kg/ha): 0.0
- Preemergence herbicidal rating AMBEL ([15]; rate 0.125 kg/ha): 7.0
- Preemergence herbicidal rating AMBEL ([15]; rate 0.25 kg/ha): 8.0
- Preemergence herbicidal rating CHEAL ([16]; rate 0.125 kg/ha): 9.0
- Preemergence herbicidal rating CHEAL ([16]; rate 0.25 kg/ha): 9.0
- Preemergence herbicidal rating DIGSA ([17]; rate 0.125 kg/ha): 4.0
- Preemergence herbicidal rating DIGSA ([17]; rate 0.25 kg/ha): 6.0
- Preemergence herbicidal rating ECHCG ([18]; rate 0.125 kg/ha): 3.0
- Preemergence herbicidal rating ECHCG ([18]; rate 0.25 kg/ha): 3.0
- Preemergence herbicidal rating GLXMA ([19]; rate 0.125 kg/ha): 0.0
- Preemergence herbicidal rating GLXMA ([19]; rate 0.25 kg/ha): 0.0
- Preemergence herbicidal rating IPOHE ([20]; rate 0.125 kg/ha): 0.0
- Preemergence herbicidal rating IPOHE ([20]; rate 0.25 kg/ha): 1.0
- Preemergence herbicidal rating SETVI ([21]; rate 0.125 kg/ha): 2.0
- Preemergence herbicidal rating SETVI ([21]; rate 0.25 kg/ha): 3.0
- Preemergence herbicidal rating TRZAW ([22]; rate 0.125 kg/ha): 0.0
- Preemergence herbicidal rating TRZAW ([22]; rate 0.25 kg/ha): 0.0
- Preemergence herbicidal rating XANST ([23]; rate 0.125 kg/ha): 1.0
- Preemergence herbicidal rating XANST ([23]; rate 0.25 kg/ha): 3.0
- Preemergence herbicidal rating ZEAMX ([24]; rate 0.125 kg/ha): 0.0
- Preemergence herbicidal rating ZEAMX ([24]; rate 0.25 kg/ha): 0.0

Reference: patent US6689773B2, “Uracil substituted phenyl sulfamoyl carboxamides” (BASF Aktiengesellschaft, priority 2000, dated 2004)
